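Growth conditions: 96-well plates. Treatment: test compound, 48 hours, 5 concentrations. Analysis: linear interpolation between bracketing concentrations; unreached endpoints set to highest concentration. GI50 is the concentration that inhibits growth by half. TGI: total growth inhibition.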
Key:
Assay in all cases: NCI tumour cell line growth inhibition, 48 h
786-0 renal = test system: 786-0 renal
A498 renal = test system: A498 renal
A549 NSCLC = test system: A549 NSCLC
ACHN renal = test system: ACHN renal
BT-549 breast = test system: BT-549 breast
CAKI-1 renal = test system: CAKI-1 renal
CCRF-CEM leukemia = test system: CCRF-CEM leukemia
COLO 205 colon = test system: COLO 205 colon
DU-145 prostate = test system: DU-145 prostate
EKVX NSCLC = test system: EKVX NSCLC
HCC-2998 colon = test system: HCC-2998 colon
HCT-116 colon = test system: HCT-116 colon
HCT-15 colon = test system: HCT-15 colon
HL-60(TB) leukemia = test system: HL-60(TB) leukemia
HOP-62 NSCLC = test system: HOP-62 NSCLC
HOP-92 NSCLC = test system: HOP-92 NSCLC
HS 578T breast = test system: HS 578T breast
HT29 colon = test system: HT29 colon
IGROV1 ovarian = test system: IGROV1 ovarian
K-562 leukemia = test system: K-562 leukemia
KM12 colon = test system: KM12 colon
LOX IMVI melanoma = test system: LOX IMVI melanoma
M14 melanoma = test system: M14 melanoma
MALME-3M melanoma = test system: MALME-3M melanoma
MCF7 breast = test system: MCF7 breast
MDA-MB-231 breast = test system: MDA-MB-231 breast
MDA-MB-435 = test system: MDA-MB-435
MOLT-4 leukemia = test system: MOLT-4 leukemia
NCI-H226 lung = test system: NCI-H226 lung
NCI-H23 lung = test system: NCI-H23 lung
NCI-H460 lung = test system: NCI-H460 lung
NCI-H522 lung = test system: NCI-H522 lung
NCI/ADR-RES ovarian = test system: NCI/ADR-RES ovarian
OVCAR-3 ovarian = test system: OVCAR-3 ovarian
OVCAR-4 ovarian = test system: OVCAR-4 ovarian
OVCAR-5 ovarian = test system: OVCAR-5 ovarian
OVCAR-8 ovarian = test system: OVCAR-8 ovarian
PC-3 prostate = test system: PC-3 prostate
RPMI-8226 leukemia = test system: RPMI-8226 leukemia
RXF 393 renal = test system: RXF 393 renal
SF-268 CNS = test system: SF-268 CNS
SF-295 CNS = test system: SF-295 CNS
SF-539 CNS = test system: SF-539 CNS
SK-MEL-2 melanoma = test system: SK-MEL-2 melanoma
SK-MEL-28 melanoma = test system: SK-MEL-28 melanoma
SK-MEL-5 melanoma = test system: SK-MEL-5 melanoma
SK-OV-3 ovarian = test system: SK-OV-3 ovarian
SN12C renal = test system: SN12C renal
SNB-19 CNS = test system: SNB-19 CNS
SNB-75 CNS = test system: SNB-75 CNS
SR leukemia = test system: SR leukemia
SW-620 colon = test system: SW-620 colon
T-47D breast = test system: T-47D breast
TK-10 renal = test system: TK-10 renal
U251 CNS = test system: U251 CNS
UACC-257 melanoma = test system: UACC-257 melanoma
UACC-62 melanoma = test system: UACC-62 melanoma
UO-31 renal = test system: UO-31 renal

Question: For `O=C(NC1CCC(Br)CC1)C1CCCC(S(=O)(=O)NC2CCCCC2)C1` (stereo unspecified), which GI50 (786-0 renal) is on record?
Answer: 19.3 µM

Question: What about the TGI (786-0 renal) of the same molecule?
Answer: 55 µM

Question: What about the GI50 (A498 renal) of the same molecule?
Answer: 3.7 µM

Question: What about the TGI (A498 renal) of the same molecule?
Answer: 21.7 µM

Question: What about the GI50 (A549 NSCLC) of the same molecule?
Answer: 9.81 µM

Question: What about the TGI (A549 NSCLC) of the same molecule?
Answer: 44.8 µM

Question: And the GI50 (ACHN renal)?
Answer: 9.9 µM

Question: What about the TGI (ACHN renal) of the same molecule?
Answer: 39.4 µM

Question: And the GI50 (BT-549 breast)?
Answer: 8.34 µM

Question: And the TGI (BT-549 breast)?
Answer: 35.4 µM

Question: And the GI50 (CAKI-1 renal)?
Answer: 10.2 µM

Question: And the TGI (CAKI-1 renal)?
Answer: 42.5 µM

Question: And the GI50 (CCRF-CEM leukemia)?
Answer: 0.233 µM

Question: What about the TGI (CCRF-CEM leukemia) of the same molecule?
Answer: 26.3 µM

Question: What about the GI50 (COLO 205 colon) of the same molecule?
Answer: 14 µM

Question: And the TGI (COLO 205 colon)?
Answer: 51.5 µM

Question: And the GI50 (DU-145 prostate)?
Answer: 16.1 µM

Question: And the TGI (DU-145 prostate)?
Answer: 47.7 µM

Question: And the GI50 (EKVX NSCLC)?
Answer: 7.81 µM

Question: What about the TGI (EKVX NSCLC) of the same molecule?
Answer: 32.9 µM

Question: What about the GI50 (HCC-2998 colon) of the same molecule?
Answer: 13 µM

Question: And the TGI (HCC-2998 colon)?
Answer: 47.3 µM

Question: What about the GI50 (HCT-116 colon) of the same molecule?
Answer: 9.15 µM

Question: What about the TGI (HCT-116 colon) of the same molecule?
Answer: 38 µM

Question: And the GI50 (HCT-15 colon)?
Answer: 11.5 µM

Question: And the TGI (HCT-15 colon)?
Answer: 46.9 µM

Question: What about the GI50 (HL-60(TB) leukemia) of the same molecule?
Answer: 8.6 µM

Question: What about the TGI (HL-60(TB) leukemia) of the same molecule?
Answer: 82.2 µM

Question: And the GI50 (HOP-62 NSCLC)?
Answer: 24 µM

Question: What about the TGI (HOP-62 NSCLC) of the same molecule?
Answer: 59.8 µM

Question: And the GI50 (HOP-92 NSCLC)?
Answer: 4.7 µM

Question: What about the TGI (HOP-92 NSCLC) of the same molecule?
Answer: 23 µM

Question: And the GI50 (HS 578T breast)?
Answer: 16.8 µM

Question: What about the TGI (HS 578T breast) of the same molecule?
Answer: 87.2 µM

Question: And the GI50 (HT29 colon)?
Answer: 17.7 µM

Question: And the TGI (HT29 colon)?
Answer: 55 µM

Question: What about the GI50 (IGROV1 ovarian) of the same molecule?
Answer: 9.78 µM

Question: And the TGI (IGROV1 ovarian)?
Answer: 46 µM

Question: What about the GI50 (K-562 leukemia) of the same molecule?
Answer: 7.52 µM

Question: What about the TGI (K-562 leukemia) of the same molecule?
Answer: 250 µM

Question: What about the GI50 (KM12 colon) of the same molecule?
Answer: 13.3 µM

Question: What about the TGI (KM12 colon) of the same molecule?
Answer: 47.8 µM

Question: And the GI50 (LOX IMVI melanoma)?
Answer: 10.7 µM

Question: What about the TGI (LOX IMVI melanoma) of the same molecule?
Answer: 40.4 µM

Question: What about the GI50 (M14 melanoma) of the same molecule?
Answer: 9.42 µM

Question: And the TGI (M14 melanoma)?
Answer: 39.6 µM

Question: And the GI50 (MALME-3M melanoma)?
Answer: 6.47 µM

Question: And the TGI (MALME-3M melanoma)?
Answer: 39.3 µM

Question: What about the GI50 (MCF7 breast) of the same molecule?
Answer: 9.31 µM

Question: And the TGI (MCF7 breast)?
Answer: 63.8 µM

Question: What about the GI50 (MDA-MB-231 breast) of the same molecule?
Answer: 13.5 µM

Question: And the TGI (MDA-MB-231 breast)?
Answer: 55.8 µM

Question: And the GI50 (MDA-MB-435)?
Answer: 10.6 µM

Question: What about the TGI (MDA-MB-435) of the same molecule?
Answer: 42.3 µM

Question: And the GI50 (MOLT-4 leukemia)?
Answer: 8.91 µM

Question: And the TGI (MOLT-4 leukemia)?
Answer: 79.3 µM

Question: What about the GI50 (NCI-H226 lung) of the same molecule?
Answer: 12 µM

Question: And the TGI (NCI-H226 lung)?
Answer: 109 µM

Question: What about the GI50 (NCI-H23 lung) of the same molecule?
Answer: 7.88 µM

Question: And the TGI (NCI-H23 lung)?
Answer: 35.3 µM

Question: And the GI50 (NCI-H460 lung)?
Answer: 11.4 µM

Question: And the TGI (NCI-H460 lung)?
Answer: 48 µM

Question: And the GI50 (NCI-H522 lung)?
Answer: 8 µM

Question: And the TGI (NCI-H522 lung)?
Answer: 38.1 µM

Question: And the GI50 (NCI/ADR-RES ovarian)?
Answer: 8.36 µM

Question: What about the TGI (NCI/ADR-RES ovarian) of the same molecule?
Answer: 37.7 µM

Question: What about the GI50 (OVCAR-3 ovarian) of the same molecule?
Answer: 9.83 µM

Question: What about the TGI (OVCAR-3 ovarian) of the same molecule?
Answer: 40 µM

Question: And the GI50 (OVCAR-4 ovarian)?
Answer: 8.19 µM

Question: And the TGI (OVCAR-4 ovarian)?
Answer: 44.1 µM

Question: And the GI50 (OVCAR-5 ovarian)?
Answer: 14.2 µM

Question: And the TGI (OVCAR-5 ovarian)?
Answer: 48.8 µM

Question: And the GI50 (OVCAR-8 ovarian)?
Answer: 12.8 µM

Question: And the TGI (OVCAR-8 ovarian)?
Answer: 59 µM

Question: What about the GI50 (PC-3 prostate) of the same molecule?
Answer: 8.47 µM

Question: And the TGI (PC-3 prostate)?
Answer: 37.1 µM

Question: And the GI50 (RPMI-8226 leukemia)?
Answer: 9.79 µM

Question: What about the TGI (RPMI-8226 leukemia) of the same molecule?
Answer: 58 µM

Question: And the GI50 (RXF 393 renal)?
Answer: 11.8 µM

Question: And the TGI (RXF 393 renal)?
Answer: 48.1 µM

Question: What about the GI50 (SF-268 CNS) of the same molecule?
Answer: 12.6 µM

Question: What about the TGI (SF-268 CNS) of the same molecule?
Answer: 56 µM

Question: And the GI50 (SF-295 CNS)?
Answer: 8.04 µM

Question: What about the TGI (SF-295 CNS) of the same molecule?
Answer: 28.4 µM

Question: What about the GI50 (SF-539 CNS) of the same molecule?
Answer: 13.5 µM

Question: What about the TGI (SF-539 CNS) of the same molecule?
Answer: 46.3 µM

Question: What about the GI50 (SK-MEL-2 melanoma) of the same molecule?
Answer: 11.5 µM

Question: And the TGI (SK-MEL-2 melanoma)?
Answer: 46.4 µM

Question: What about the GI50 (SK-MEL-28 melanoma) of the same molecule?
Answer: 9.22 µM

Question: What about the TGI (SK-MEL-28 melanoma) of the same molecule?
Answer: 36.8 µM

Question: And the GI50 (SK-MEL-5 melanoma)?
Answer: 4.96 µM

Question: And the TGI (SK-MEL-5 melanoma)?
Answer: 11.6 µM

Question: And the GI50 (SK-OV-3 ovarian)?
Answer: 14.1 µM

Question: What about the TGI (SK-OV-3 ovarian) of the same molecule?
Answer: 47.3 µM

Question: And the GI50 (SN12C renal)?
Answer: 9.29 µM

Question: And the TGI (SN12C renal)?
Answer: 39.8 µM

Question: What about the GI50 (SNB-19 CNS) of the same molecule?
Answer: 11.1 µM

Question: What about the TGI (SNB-19 CNS) of the same molecule?
Answer: 42.7 µM

Question: And the GI50 (SNB-75 CNS)?
Answer: 17 µM

Question: And the TGI (SNB-75 CNS)?
Answer: 69.5 µM

Question: What about the GI50 (SR leukemia) of the same molecule?
Answer: 18.8 µM

Question: And the TGI (SR leukemia)?
Answer: 129 µM

Question: And the GI50 (SW-620 colon)?
Answer: 13.9 µM

Question: What about the TGI (SW-620 colon) of the same molecule?
Answer: 53.7 µM

Question: And the GI50 (T-47D breast)?
Answer: 6.05 µM

Question: What about the TGI (T-47D breast) of the same molecule?
Answer: 37 µM

Question: And the GI50 (TK-10 renal)?
Answer: 15 µM

Question: What about the TGI (TK-10 renal) of the same molecule?
Answer: 49.9 µM

Question: What about the GI50 (U251 CNS) of the same molecule?
Answer: 10.9 µM

Question: And the TGI (U251 CNS)?
Answer: 43 µM

Question: What about the GI50 (UACC-257 melanoma) of the same molecule?
Answer: 9.32 µM

Question: What about the TGI (UACC-257 melanoma) of the same molecule?
Answer: 38.4 µM

Question: What about the GI50 (UACC-62 melanoma) of the same molecule?
Answer: 7.38 µM

Question: And the TGI (UACC-62 melanoma)?
Answer: 35.3 µM

Question: What about the GI50 (UO-31 renal) of the same molecule?
Answer: 6.26 µM

Question: And the TGI (UO-31 renal)?
Answer: 33.1 µM

— PubChem BioAssay (NCI)
